The values that follow come from patent US9802941B2, “Compounds and methods for inhibiting histone demethylases” (Gilead Sciences, Inc., priority 2014, dated 2017).

Holding throughout (type): biochemical
For test [1], the target named is T1, KDM4C (JMJD2C) (Homo sapiens, UniProt Q9H3R0).
T1 construct: KDM4C; BRIC, Denmark; 1-349; E. coli; host or cells: E. coli
T1 sequence (Q9H3R0 1-349): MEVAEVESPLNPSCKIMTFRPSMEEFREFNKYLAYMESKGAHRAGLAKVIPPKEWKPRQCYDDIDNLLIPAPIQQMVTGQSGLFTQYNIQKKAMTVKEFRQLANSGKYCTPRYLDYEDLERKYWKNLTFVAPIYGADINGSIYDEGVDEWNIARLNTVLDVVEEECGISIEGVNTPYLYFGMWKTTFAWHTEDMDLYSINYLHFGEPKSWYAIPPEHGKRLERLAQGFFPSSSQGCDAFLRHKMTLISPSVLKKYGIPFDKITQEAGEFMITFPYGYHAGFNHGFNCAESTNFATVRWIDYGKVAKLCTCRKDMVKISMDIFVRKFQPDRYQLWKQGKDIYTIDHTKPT
As to the kind of experiment: Histone lysine demethylase AlphaLISA assay, KDM4C. In a few lines:
(§1)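 Buffer: 50 mM Hepes pH 7.4-8.0, Tween-20, 0.1% BSA, 5 μM ammonium iron(II) sulfate. Enzyme + compound (DMSO) 10 min, then substrate at RT; acceptor and streptavidin donor beads added, dark incubation, AlphaLISA read.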

Test [2] has as its target T2, KDM2B (FBXL10) (Homo sapiens, UniProt Q8NHM5).
T2 construct: KDM2B; BPS,; 1-650; Bac; purchased BPS Bioscience, US; host or cells: baculovirus system
T2 sequence (Q8NHM5 1-650): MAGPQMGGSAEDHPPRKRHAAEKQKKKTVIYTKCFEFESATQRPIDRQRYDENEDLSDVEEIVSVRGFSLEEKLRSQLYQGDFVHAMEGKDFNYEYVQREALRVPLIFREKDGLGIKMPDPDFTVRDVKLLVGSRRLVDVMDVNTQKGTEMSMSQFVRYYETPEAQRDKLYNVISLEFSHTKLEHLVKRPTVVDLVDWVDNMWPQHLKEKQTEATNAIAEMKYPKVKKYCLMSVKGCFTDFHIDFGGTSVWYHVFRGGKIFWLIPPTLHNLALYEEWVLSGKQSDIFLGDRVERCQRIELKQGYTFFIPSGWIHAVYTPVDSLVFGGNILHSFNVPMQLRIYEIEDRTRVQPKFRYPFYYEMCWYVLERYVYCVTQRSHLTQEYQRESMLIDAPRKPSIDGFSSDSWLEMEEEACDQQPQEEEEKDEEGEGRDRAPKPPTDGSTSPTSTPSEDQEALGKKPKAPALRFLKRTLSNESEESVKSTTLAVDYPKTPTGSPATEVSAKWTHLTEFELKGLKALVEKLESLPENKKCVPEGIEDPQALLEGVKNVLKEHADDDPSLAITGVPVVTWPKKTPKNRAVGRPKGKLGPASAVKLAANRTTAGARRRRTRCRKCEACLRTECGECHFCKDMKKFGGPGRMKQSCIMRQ
As to the kind of experiment: Histone lysine demethylase AlphaLISA assay, KDM2B. A digest of the protocol:
as §1

Test [3] concerns the target T3, PHF8 (KDM7) (Homo sapiens, UniProt Q9UPP1).
T3 construct: KDM7 (PHF8); BRIC; 1-1322; Bac
Description: Histone lysine demethylase AlphaLISA assay, PHF8. A digest of the protocol: as §1

The target of test [4] is T4, KDM6A (UTX) (Homo sapiens, UniProt O15550).
T4 construct: KDM6A (UTX); BRIC; 919-1401; E. coli; host or cells: E. coli
As to the kind of experiment: Histone lysine demethylase AlphaLISA assay, KDM6A. A digest of the protocol:
as §1
On the technique in general: Alpha assays give light when donor and acceptor beads are brought close together.

Test [5] addresses T5, KDM5B (PLU-1) (Homo sapiens, UniProt Q9UGL1).
T5 construct: BRIC; 1-809; E. coli; host or cells: E. coli
T5 sequence (Q9UGL1 1-809): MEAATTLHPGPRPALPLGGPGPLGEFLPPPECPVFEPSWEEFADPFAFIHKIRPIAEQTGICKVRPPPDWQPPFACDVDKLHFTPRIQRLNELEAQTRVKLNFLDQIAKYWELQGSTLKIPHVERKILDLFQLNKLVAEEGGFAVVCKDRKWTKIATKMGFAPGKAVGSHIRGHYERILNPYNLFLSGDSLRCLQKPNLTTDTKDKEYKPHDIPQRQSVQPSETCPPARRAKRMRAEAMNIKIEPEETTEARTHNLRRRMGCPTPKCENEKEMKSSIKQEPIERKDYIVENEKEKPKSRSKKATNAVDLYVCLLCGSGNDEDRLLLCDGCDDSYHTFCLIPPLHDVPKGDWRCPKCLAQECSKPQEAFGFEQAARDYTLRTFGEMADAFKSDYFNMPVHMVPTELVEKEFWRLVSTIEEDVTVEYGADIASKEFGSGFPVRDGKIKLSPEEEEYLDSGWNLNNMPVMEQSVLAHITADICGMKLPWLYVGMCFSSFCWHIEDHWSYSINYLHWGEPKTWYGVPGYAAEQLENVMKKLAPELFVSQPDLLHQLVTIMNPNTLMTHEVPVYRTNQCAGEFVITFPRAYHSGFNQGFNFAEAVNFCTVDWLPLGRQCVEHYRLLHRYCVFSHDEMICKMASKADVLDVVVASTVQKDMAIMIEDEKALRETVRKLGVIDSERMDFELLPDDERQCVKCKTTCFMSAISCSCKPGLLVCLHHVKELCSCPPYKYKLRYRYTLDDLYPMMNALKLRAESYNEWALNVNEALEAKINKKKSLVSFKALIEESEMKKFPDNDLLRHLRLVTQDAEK
Description: Histone lysine demethylase AlphaLISA assay, KDM5B. A digest of the protocol:
as §1

Setting [6] is: AlphaLISA assay, read-out: HDME Inhibition KDM4C (IC50).
[7] abbreviates: AlphaLISA, in vitro, read-out: HDME Inhibition KDM4C.
Setting [8] is: AlphaLISA, in vitro, read-out: HDME Inhibition KDM2B.
Where [9] appears, read: AlphaLISA assay, read-out: HDME Inhibition PHF8 (IC50).
The mark [10] stands for this setting: AlphaLISA, in vitro, read-out: HDME Inhibition PHF8.
Where [11] appears, read: AlphaLISA assay, read-out: HDME Inhibition KDM6A (IC50).
Where [12] appears, read: AlphaLISA, in vitro, read-out: HDME Inhibition KDM6A.
[13] abbreviates: AlphaLISA assay, read-out: HDME Inhibition KDM5B (IC50).
[14] abbreviates: AlphaLISA, in vitro, read-out: HDME Inhibition KDM5B.
[15] abbreviates: AlphaLISA assay, read-out: HDME Inhibition KDM2B (IC50).

The structures appear in SMILES notation. Read-outs that look alike come from different tables or passages of the source. Where only a bound is given, the exact number is not on record here.

T4 sequence (O15550 919-1401): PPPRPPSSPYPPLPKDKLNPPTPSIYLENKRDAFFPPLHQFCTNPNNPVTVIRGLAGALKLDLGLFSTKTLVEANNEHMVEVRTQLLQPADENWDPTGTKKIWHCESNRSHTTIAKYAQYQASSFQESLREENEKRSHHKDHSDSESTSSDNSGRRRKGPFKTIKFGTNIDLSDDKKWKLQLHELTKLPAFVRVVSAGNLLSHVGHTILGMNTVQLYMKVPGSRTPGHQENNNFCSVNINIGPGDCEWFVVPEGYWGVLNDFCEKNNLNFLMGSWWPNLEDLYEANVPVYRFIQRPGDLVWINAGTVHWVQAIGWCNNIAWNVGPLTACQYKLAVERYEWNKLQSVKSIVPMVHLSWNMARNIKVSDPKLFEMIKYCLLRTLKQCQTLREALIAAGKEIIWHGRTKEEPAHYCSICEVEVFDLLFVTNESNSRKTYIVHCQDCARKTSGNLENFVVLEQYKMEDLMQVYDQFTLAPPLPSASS
T3 sequence (Q9UPP1 37-440 limits assumed): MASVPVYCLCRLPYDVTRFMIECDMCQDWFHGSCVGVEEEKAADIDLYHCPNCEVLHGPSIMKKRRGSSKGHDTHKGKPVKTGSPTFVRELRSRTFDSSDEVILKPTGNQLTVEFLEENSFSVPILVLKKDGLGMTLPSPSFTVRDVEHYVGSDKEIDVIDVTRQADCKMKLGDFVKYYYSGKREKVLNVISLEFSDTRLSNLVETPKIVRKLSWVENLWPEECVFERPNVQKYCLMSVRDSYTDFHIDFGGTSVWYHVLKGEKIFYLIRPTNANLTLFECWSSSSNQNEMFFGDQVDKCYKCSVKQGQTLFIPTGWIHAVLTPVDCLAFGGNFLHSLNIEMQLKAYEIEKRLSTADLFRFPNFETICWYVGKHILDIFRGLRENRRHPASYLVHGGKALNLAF

For `Cc1cc(C(=O)O)cc(CNCCc2ncccc2CCC(C)C)n1` [Compound 20, 2-methyl-6-[({2-[3-(3-methylbutyl)pyridin-2-yl]ethyl}amino)methyl]pyridine-4-carboxylic acid], the IC50 was above 10 µM in test [1] (setting [6]); above 10 µM in test [1] (setting [7]); 5.43 µM in test [2] (setting [8]); above 10 µM in test [3] (setting [9]); above 10 µM in test [3] (setting [10]); above 10 µM in test [4] (setting [11]). Also, the IC50 in test [4] (setting [12]), in test [5] (setting [13]) and in test [5] (setting [14]) was above 10 µM each time.
For the compound `CCCCCCCc1cccnc1CCNCc1cc(C(=O)O)cc(C)n1` [Compound 21, 2-({[2-(3-heptylpyridin-2-yl)ethyl]amino}methyl)-6-methylpyridine-4-carboxylic acid], the IC50 in test [1] (setting [6]) is above 10 µM; in test [1] (setting [7]), above 10 µM; in test [2] (setting [8]), 5.35 µM; in test [3] (setting [9]), above 10 µM; in test [3] (setting [10]), above 10 µM; in test [4] (setting [11]), above 10 µM. Moreover, the IC50 in test [4] (setting [12]), in test [5] (setting [13]) and in test [5] (setting [14]) was above 10 µM throughout.
On to `COc1ccc(CCn2ccnc2CNCc2cc(C(=O)O)cc(C)n2)cc1OC` [Compound 22, 2-{[({1-[2-(3,4-dimethoxyphenyl)ethyl]-1H-imidazol-2-yl}methyl)amino]methyl}-6-methylpyridine-4-carboxylic acid], for which the IC50 in test [1] (setting [6]), in test [1] (setting [7]), in test [2] (setting [15]), in test [2] (setting [8]), in test [3] (setting [9]) and in test [3] (setting [10]) was above 10 µM throughout. Moreover, the IC50 in test [4] (setting [11]), in test [4] (setting [12]), in test [5] (setting [13]) and in test [5] (setting [14]) was above 10 µM each time.
As for `Cc1cc(C(=O)O)cc(CN[C@H](CO)CC(C)C)n1` [Compound 23, 2-({[(2S)-1-hydroxy-4-methylpentan-2-yl]amino}methyl)-6-methylpyridine-4-carboxylic acid], the IC50 in test [1] (setting [6]), in test [1] (setting [7]), in test [2] (setting [15]), in test [2] (setting [8]), in test [3] (setting [9]) and in test [3] (setting [10]) was above 10 µM each time. Moreover, the IC50 in test [4] (setting [11]), in test [4] (setting [12]), in test [5] (setting [13]) and in test [5] (setting [14]) was above 10 µM in each case.
Take `Cc1cc(C(=O)O)cc(CNCc2nc3c(n2Cc2ccc(F)cc2)CCC3)n1` [Compound 25, 2-{[({1-[(4-fluorophenyl)methyl]-1H,4H,5H,6H-cyclopenta[d]imidazol-2-yl}methyl)amino]methyl}-6-methylpyridine-4-carboxylic acid]: the IC50 is above 10 µM in test [1] (setting [6]); above 10 µM in test [1] (setting [7]); 1.13 µM in test [2] (setting [8]); 1.21 µM in test [3] (setting [10]); above 10 µM in test [4] (setting [11]); above 10 µM in test [4] (setting [12]). The IC50 in test [5] (setting [13]) and in test [5] (setting [14]) was above 10 µM each time.
Consider `Cc1cc(C(=O)O)cc(CNCc2nccn2CCc2cncnc2)n1` [Compound 26, 2-methyl-6-{[({1-[2-(pyrimidin-5-yl)ethyl]-1H-imidazol-2-yl}methyl)amino]methyl}pyridine-4-carboxylic acid], for which the IC50 in test [1] (setting [6]) is above 10 µM; in test [1] (setting [7]), above 10 µM; in test [2] (setting [8]), 0.565 µM; in test [3] (setting [10]) it was 1.03 µM; in test [4] (setting [11]), above 10 µM; in test [4] (setting [12]), above 10 µM. Besides, the IC50 in test [5] is 3.02 µM.
With `CCc1nnc(CNCc2cc(C(=O)O)cc(C)n2)n1Cc1ccc(F)cc1` [Compound 27, 2-{[({5-Ethyl-4-[(4-fluorophenyl)methyl]-4H-1,2,4-triazol-3-yl}methyl)amino]methyl}-6-methylpyridine-4-carboxylic acid], the IC50 in test [1] (setting [6]) is above 10 µM; in test [1] (setting [7]), above 10 µM; in test [2] (setting [8]), 0.158 µM; in test [3] (setting [10]), 0.537 µM; in test [4] (setting [11]) it was above 10 µM; in test [4] (setting [12]), above 10 µM. The IC50 in test [5] (setting [13]) and in test [5] (setting [14]) was above 10 µM throughout.
For `Cc1cc(C(=O)O)cc(CNCc2ncc(CCc3ccccc3)n2Cc2ccc(F)cc2)n1` [Compound 28, 2-{[({1-[(4-fluorophenyl)methyl]-5-(2-phenylethyl)-1H-imidazol-2-yl}methyl)amino]methyl}-6-methylpyridine-4-carboxylic acid], the IC50 in test [1] (setting [6]) is above 10 µM; in test [1] (setting [7]), above 10 µM; in test [2] (setting [8]), 0.462 µM; in test [3] (setting [10]), 1.06 µM; in test [4] (setting [11]), above 10 µM; in test [4] (setting [12]), above 10 µM. For the same compound, the IC50 in test [5] (setting [13]) and in test [5] (setting [14]) was above 10 µM throughout.
Consider `Cc1cc(C(=O)O)cc(CNCc2nnc(Cc3ccccc3)n2Cc2ccc(F)cc2)n1` [Compound 29, 2-{[({5-benzyl-4-[(4-fluorophenyl)methyl]-4H-1,2,4-triazol-3-yl}methyl)amino]methyl}-6-methylpyridine-4-carboxylic acid], for which the IC50 in test [1] (setting [6]) is above 10 µM; in test [1] (setting [7]), above 10 µM; in test [2] (setting [8]), 1.14 µM; in test [3] (setting [10]), 2.65 µM; in test [4] (setting [11]) it was above 10 µM; in test [4] (setting [12]), above 10 µM. The IC50 in test [5] (setting [13]) and in test [5] (setting [14]) was above 10 µM each time.
Consider `CCC(C)Cc1cnc(CNCc2cc(C(=O)O)cc(C)n2)n1Cc1ccc(F)cc1` (stereo not shown) [Compound 30, 2-{[({1-[(4-fluorophenyl)methyl]-5-(2-methylbutyl)-1H-imidazol-2-yl}methyl)amino]methyl}-6-methylpyridine-4-carboxylic acid], for which the IC50 in test [1] (setting [6]) is above 10 µM; in test [1] (setting [7]) it was above 10 µM; in test [2] (setting [8]) it was 0.703 µM; in test [3] (setting [10]), 2.22 µM; in test [4] (setting [11]), above 10 µM; in test [4] (setting [12]), above 10 µM. The IC50 in test [5] (setting [13]) and in test [5] (setting [14]) was above 10 µM in each case.
